From patent US9968645B2, “Method for enhanced production of morinda metabolites” (priority 2014, dated 2018)

Tested on: DSS-induced ulcerative colitis in mouse
Test: Acute mouse ulcerative colitis model, colitis induced by 4% dextran sulfate (DSS)
Format: in vivo
Conditions: Male BalbC mice, 20 mg/kg co-fed with 4% DSS for 7 days
Procedure: The therapeutic efficacy of the methanolic extracts of MO hairy roots was examined in an acute mouse ulcerative colitis model. The mouse ulcerative colitis model is used to predict ulcerative colitis and treatment of that disease in human subjects (e.g. Low et. al., 2013). Male BalbC mice in groups of 10 were housed in Good Animal Care Protocol conditions. Colitis was induced by 4% dextran sulfate (DSS). In a pilot dosing study (50 mg/kg, 150 mg/kg, and 450 mg/kg) of MO root extracts on UC, an unexpected finding was made. […] Subsequently the effect of drug treatment on colitis was investigated by co-feeding the mice extracts from MO native plants or hairy root culture at doses below 50 mg/kg along with 4% DSS for 7 days. 5-amino-salicylic acid (5-ASA) was used as a positive treatment control. Animals were weighed, and stool consistency was monitored daily to determine the disease activity index (DAD. All animals were anesthetized and the colons were separated from the proximal rectum, and the colon length was measured between the ileo-cecal junction and the proximal rectum. [table]

`Nc1ccc(O)c(C(=O)O)c1` [5-ASA, 5-amino-salicylic acid] was tested, and the “DAI (disease activity index)” value was 3.0 ± 2.22, the Length of colon was 6.77 ± 0.19 cm and the “% of mice developing ulcer” value (including disruption of colonic crypts and damaged glandular structures) was 60%.
